Test results: patent US5370770A, “Method for deinking printed waste paper using soybean peroxidase” (priority 1992, dated 1994)

How the values were obtained:
[1] = target: Soybean Peroxidase (SBP) (Glycine max, UniProt O22443); experiment: Oxidation of methoxybenzene substrates by soybean peroxidase (redox potential comparison); format: biochemical; details: absorbance change at substrate λmax
Description: (§1) Any of a variety of peroxidases can be used in the present invention.
(§2) *all values in Δ Abs/(mg enzymemin).
**curve of ΔAbs/time slopes upward as reaction proceeds.

[2] = Half-wave redox potential of substrates; format: physicochemical; details: redox potential of substrate
[3] = target: T1, Horseradish Peroxidase (HRP) (Armoracia rusticana, UniProt P00433); experiment: Oxidation of methoxybenzene substrates by horseradish peroxidase (redox potential comparison); format: biochemical; details: absorbance change at substrate λmax
T1 sequence (P00433 31-353): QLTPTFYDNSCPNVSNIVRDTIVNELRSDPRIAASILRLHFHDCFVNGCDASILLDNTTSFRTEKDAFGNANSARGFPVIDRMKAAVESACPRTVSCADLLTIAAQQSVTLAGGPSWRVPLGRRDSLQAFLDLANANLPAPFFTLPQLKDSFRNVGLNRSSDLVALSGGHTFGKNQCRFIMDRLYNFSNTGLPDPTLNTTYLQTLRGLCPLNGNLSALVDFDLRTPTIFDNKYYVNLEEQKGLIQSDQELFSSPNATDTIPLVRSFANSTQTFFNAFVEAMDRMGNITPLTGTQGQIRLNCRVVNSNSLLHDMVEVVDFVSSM
Description: as §1, §2

Soybean Peroxidase (SBP), sequence (O22443 27-332): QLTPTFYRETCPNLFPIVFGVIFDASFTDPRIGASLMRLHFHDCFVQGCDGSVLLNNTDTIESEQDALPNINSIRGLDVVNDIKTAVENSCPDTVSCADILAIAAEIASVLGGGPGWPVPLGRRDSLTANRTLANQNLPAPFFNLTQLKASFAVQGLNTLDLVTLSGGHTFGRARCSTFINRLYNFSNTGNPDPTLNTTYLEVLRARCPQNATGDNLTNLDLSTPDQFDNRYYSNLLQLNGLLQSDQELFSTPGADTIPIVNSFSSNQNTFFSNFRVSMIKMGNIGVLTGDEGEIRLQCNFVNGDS

| SMILES | SBP [1] | E1/2 (V) [2] [V] | HRP [3] |
| --- | --- | --- | --- |
| COc1cc(OC)c(OC)c(OC)c1OC [pentamethoxybenzene] | 8.76 Δ Abs/(mg enzymemin) | 1.07 | 2.50 Δ Abs/(mg enzymemin) |
| COc1ccc(OC)c(OC)c1 [1,2,4-trimethoxybenzene] | 9.23 Δ Abs/(mg enzymemin) | 1.12 | 1.64 Δ Abs/(mg enzymemin) |
| COc1c(OC)c(OC)c(OC)c(OC)c1OC [hexamethoxybenzene] | 0.22 Δ Abs/(mg enzymemin) | 1.24 | 0 Δ Abs/(mg enzymemin) |
| COc1ccc(OC)cc1 [1,4-dimethoxybenzene] | 0.072 Δ Abs/(mg enzymemin) | 1.34 | 0 Δ Abs/(mg enzymemin) |
| COc1cc(OC)c(OC)c(OC)c1 [1,2,3,5-tetramethoxybenzene] | 3.02 Δ Abs/(mg enzymemin) | 1.09 | 0.30 Δ Abs/(mg enzymemin) |
